Test results taken from PMC5443783, “Prostaglandin E2 glyceryl ester is an endogenous agonist of the nucleotide receptor P2Y6” (Scientific Reports, 2017).
Entries after “also recorded” stand apart in the source; their conditions may differ.

Legend:
P2Y6 Y262 to alanine = target: T1, P2Y6 Y262 to alanine (Homo sapiens, UniProt Q15077, Y262A); experiment: IP1 accumulation assay, mutant P2Y6 Y262A; assay type: cell-based; conditions: Fig. 6d
T1 construct: expressed in transfected cells; host or cells: HEK293
Description: cDNA from H1819 cells was used to amplify and clone the P2RY6 and CNR2 coding sequences. They were double-tagged with an N-terminal HA epitope and a C-terminal FLAG epitope and, for transient transfection, introduced into the mammalian expression vector pcDps[56]. All mutant constructs were generated by a PCR-based site-directed mutagenesis and fragment replacement strategy. For stable transfection, P2RY6 was sub-cloned into the pIRES-eGFP vector (CLONTECH Laboratories, USA). All constructs were verified by sequencing.
To measure intracellular IP3 the HitHunter® Inositol (1,4,5) Triphosphate Assay (DiscoveRx, USA) was used according to manufacturer′s protocol. HEK293 cells stably transfected with hP2RY6 were seeded in a 384-well Black microtiter plate (15,000 cells/well) (Greiner Bio One, Germany) and incubated with indicated concentrations of UDP and PGE2-G for 20 seconds. Reaction was stopped by adding 5 µl 0.2 N perchloric acid and measurement of IP3 was performed with the Fusion AlphaScreen multilabel reader (PerkinElmer Life Sciences) according to manufacturer′s protocol. To measure IP1, HEK293 cells expressing wildtype and mutant P2Y6 were seeded into 384-well plates (5,000 cells/well) 24 h prior assay. After aspiration of the medium, cells were incubated with indicated concentrations of agonists/antagonist for 1 h. […]

RAW264.7 cells = conditions: RAW264.7 and H1819 cell lines; read-out: EC50, Ca2+ response; cited from earlier work
P2Y6 [1] = target: T2, P2Y6 (Homo sapiens, UniProt Q15077); experiment: ERK1/2 phosphorylation (AlphaScreen SureFire) in P2RY6-transfected HEK293 cells; assay type: cell-based; parameters: expressed in transfected cells; host or cells: HEK293; conditions: P2RY6-transfected HEK293 cells, Fig. 3b
Description: Cells were transferred to serum-free medium 2 h prior to assay. Ligands and controls (10 µl of 10× concentrates) were added to 90 µl medium and incubated for 5 min at 37 °C. The final concentration of DMSO was 0.2%. The reaction was stopped by aspiration of the medium and addition of 50 µl lysis buffer (PerkinElmer Life Sciences). To measure ERK1/2 phosphorylation, the AlphaScreen® SureFire ERK 1/2 assay kit (PerkinElmer Life Sciences) was used with the high sensitivity protocol. Phosphorylated ERK1/2 was measured in 384-well white OptiPlate microplates (PerkinElmer Life Sciences) with the Fusion AlphaScreen multilabel reader (PerkinElmer Life Sciences).

78 orphan GPCRs = experiment: PathHunter β-Arrestin Orphan GPCR cell line panel, whole panel; assay type: cell-based; conditions: β-arrestin recruitment
Description: For screening orphan GPCRs as possible targets for PGE2-G, the PathHunter® β-Arrestin assay (DiscoveRx Co., USA) was used. It monitors the activation of a GPCR by utilizing an enzyme fragment complementation assay with β-galactosidase as the functional reporter. Briefly, the enzyme is split into two complementary portions expressed as fusion proteins in the cell. The enzyme acceptor is fused to β2-arrestin, and the ProLink donor peptide is fused to the GPCR of interest. Upon GPCR stimulation, β2-arrestin is recruited to the receptor, bringing the two fragments of β-galactosidase together. This generates an active enzyme that can convert a chemiluminescent substrate, generating a signal detectable on a standard microplate reader (see manufacturer’s instructions). In total, 78 GPCRs, previously considered orphan and individually transfected into cells, were screened by DiscoveRx (Supplementary Table S1). The percentage activity given in the results is calculated using the following formula: % activity = 100% × (mean RLU of test sample - mean RLU of vehicle control)/mean RLU of vehicle control).

HEK293 cells = experiment: Intracellular Ca2+ measurement in non-transfected HEK293 cells; assay type: cell-based, human; conditions: for effect on intracellular Ca2+: non-transfected HEK293 cells
Description: (§1) For fluorometric measurements of intracellular Ca^2+ levels with the FlexStationII instrument (Molecular Devices), RAW264.7 and H1819 cells were seeded into 96-well plates (3.0 × 10^4 cells/well) 24 h prior to assay. Ca^2+ measurements with transiently transfected HEK293 cells were performed 48 h after transfection. Cells were loaded with 200 µl Calcium 5 reagent (Explorer Kit, Molecular Devices, USA) for 60 min at 37 °C, and the assay was performed as described. Agonists and inhibitors were solved in DMSO (100x) and diluted […] in 96-well compound plates containing HBSS. 50 µl of compound solution were added to the assay plate resulting in final concentration of 1% DMSO. Fold-response was calculated by RFUmax − RFUmin (ligand)/RFUmax − RFUmin (vehicle). EC50 values were calculated by using GraphPad Prism6 software (GraphPad, USA).

P2Y1 = target: T3, P2Y1 (Homo sapiens, UniProt P47900); experiment: Intracellular Ca2+ release in HEK293 cells transfected with P2RY1; assay type: cell-based; conditions: HEK293 transfected with P2RY1, Fig. 3f
T3 construct: expressed in transfected cells; host or cells: HEK293
Description: as §1

P2Y12 = target: T4, P2Y12 (Homo sapiens, UniProt Q9H244); experiment: Intracellular Ca2+ release in HEK293 cells transfected with P2RY12; assay type: cell-based; conditions: HEK293 transfected with P2RY12, Fig. 3f
T4 construct: expressed in transfected cells; host or cells: HEK293
Description: as §1

P2Y6 [2] = target: T2, P2Y6; experiment: IP3 assay in P2RY6-transfected HEK293 cells; assay type: cell-based; parameters: expressed in transfected cells; host or cells: HEK293; conditions: Fig. 3a, read-out: EC50, IP3 levels
Description: To measure intracellular IP3 the HitHunter® Inositol (1,4,5) Triphosphate Assay (DiscoveRx, USA) was used according to manufacturer′s protocol. HEK293 cells stably transfected with hP2RY6 were seeded in a 384-well Black microtiter plate (15,000 cells/well) (Greiner Bio One, Germany) and incubated with indicated concentrations of UDP and PGE2-G for 20 seconds. Reaction was stopped by adding 5 µl 0.2 N perchloric acid and measurement of IP3 was performed with the Fusion AlphaScreen multilabel reader (PerkinElmer Life Sciences) according to manufacturer′s protocol. To measure IP1, HEK293 cells expressing wildtype and mutant P2Y6 were seeded into 384-well plates (5,000 cells/well) 24 h prior assay. After aspiration of the medium, cells were incubated with indicated concentrations of agonists/antagonist for 1 h. IP1 measurements using the IP-one HTFR® assay kit (Cisbio assays, USA) were performed according to manufacturer′s protocol. The assays were performed with a final concentration of 1% DMSO.

T2 sequence (Q15077 whole entry, the tested form may be a part): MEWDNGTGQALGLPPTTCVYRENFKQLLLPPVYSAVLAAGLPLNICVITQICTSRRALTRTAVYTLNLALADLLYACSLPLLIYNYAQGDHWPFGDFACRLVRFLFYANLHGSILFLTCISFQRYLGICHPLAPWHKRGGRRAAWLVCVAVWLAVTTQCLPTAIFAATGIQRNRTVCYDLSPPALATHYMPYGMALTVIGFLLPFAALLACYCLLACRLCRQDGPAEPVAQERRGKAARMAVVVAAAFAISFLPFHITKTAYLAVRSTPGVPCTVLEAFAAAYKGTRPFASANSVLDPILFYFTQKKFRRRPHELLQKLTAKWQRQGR
T1 sequence (Q15077 whole entry Y262A): as the sequence (Q15077 whole entry, the tested form may be a part) above, with Y262A counted along it
T4 sequence (Q9H244 whole entry, species assumed): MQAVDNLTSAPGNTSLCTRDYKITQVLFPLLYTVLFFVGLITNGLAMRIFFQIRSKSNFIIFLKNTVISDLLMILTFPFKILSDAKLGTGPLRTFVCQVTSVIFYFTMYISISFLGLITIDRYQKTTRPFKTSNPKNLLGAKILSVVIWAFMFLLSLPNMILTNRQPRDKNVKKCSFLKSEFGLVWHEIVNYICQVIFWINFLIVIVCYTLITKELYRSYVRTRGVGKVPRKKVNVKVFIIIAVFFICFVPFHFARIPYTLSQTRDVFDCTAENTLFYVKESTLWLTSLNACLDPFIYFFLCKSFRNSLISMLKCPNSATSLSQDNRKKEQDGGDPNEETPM
T3 sequence (P47900 whole entry, species assumed): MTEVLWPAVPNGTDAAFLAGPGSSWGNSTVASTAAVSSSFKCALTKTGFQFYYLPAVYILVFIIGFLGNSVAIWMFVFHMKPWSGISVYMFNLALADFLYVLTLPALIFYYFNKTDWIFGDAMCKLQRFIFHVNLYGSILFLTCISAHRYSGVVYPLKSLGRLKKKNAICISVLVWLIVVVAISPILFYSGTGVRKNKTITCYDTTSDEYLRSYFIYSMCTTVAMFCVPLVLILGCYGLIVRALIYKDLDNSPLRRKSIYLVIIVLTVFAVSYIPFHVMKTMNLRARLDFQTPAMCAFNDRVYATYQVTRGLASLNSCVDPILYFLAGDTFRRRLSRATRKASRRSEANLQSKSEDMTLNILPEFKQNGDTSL

Row | EC50 (P2Y6 [2]) | Compound | IP1 formation at mutant receptor (P2Y6 Y262 to alanine) | EC50 (RAW264.7 cells) | ERK1/2 phosphorylation (P2Y6 [1]) | response of orphan GPCRs (78 orphan GPCRs) | Maximum RFU for PGE2-G (HEK293 cells; HEK293 cells, control (1% DMSO) 2,106 ± 1,193) | effect on intracellular Ca2+ (HEK293 cells) | Ca2+ release (P2Y1) | Ca2+ release (P2Y12)
1 |  | Prostaglandin E2 glyceryl ester [PGE2-G] | fully activated | ~0.001 nM | led to ERK1/2 phosphorylation; also recorded: induce ERK1/2 phosphorylation | None of the tested receptors demonstrated a positive response | 2,193 ± 252 RFU | no effect | not and neither P2Y1 nor P2Y12 showed activity | not and neither P2Y1 nor P2Y12 showed activity
2 | 2.7 ± 0.1 nM | O=c1ccn([C@@H]2O[C@H](COP(=O)(O)OP(=O)(O)O)[C@@H](O)[C@H]2O)c(=O)[nH]1 [UDP] | significantly reduced activity |  | led to ERK1/2 phosphorylation; also recorded: induce ERK1/2 phosphorylation |  |  | no effect |  | 
